Laboratory results published in patent publication US10988508B2, “Synthetic N-acetyl-muramic acid derivatives and uses thereof” (University of Delaware, priority 2015, dated 2021).
Entries after “also recorded” stand apart in the source; their conditions may differ. Read-outs that look alike come from different tables or passages of the source. One block for each compound: values may come before it.

How the values were obtained:
[1] = biological target: T1, Nod2 (Homo sapiens, UniProt Q9HC29); experiment: Nod2 half-life by cycloheximide chase and western blot in HEK 293T-Nod2myc/Tet-op cells; format: cell-based; design: expressed in transfected cells; host or cells: HEK293T; conditions: for stabilization of Nod2 (in words): compared to untreated control
T1 sequence (Q9HC29 whole entry): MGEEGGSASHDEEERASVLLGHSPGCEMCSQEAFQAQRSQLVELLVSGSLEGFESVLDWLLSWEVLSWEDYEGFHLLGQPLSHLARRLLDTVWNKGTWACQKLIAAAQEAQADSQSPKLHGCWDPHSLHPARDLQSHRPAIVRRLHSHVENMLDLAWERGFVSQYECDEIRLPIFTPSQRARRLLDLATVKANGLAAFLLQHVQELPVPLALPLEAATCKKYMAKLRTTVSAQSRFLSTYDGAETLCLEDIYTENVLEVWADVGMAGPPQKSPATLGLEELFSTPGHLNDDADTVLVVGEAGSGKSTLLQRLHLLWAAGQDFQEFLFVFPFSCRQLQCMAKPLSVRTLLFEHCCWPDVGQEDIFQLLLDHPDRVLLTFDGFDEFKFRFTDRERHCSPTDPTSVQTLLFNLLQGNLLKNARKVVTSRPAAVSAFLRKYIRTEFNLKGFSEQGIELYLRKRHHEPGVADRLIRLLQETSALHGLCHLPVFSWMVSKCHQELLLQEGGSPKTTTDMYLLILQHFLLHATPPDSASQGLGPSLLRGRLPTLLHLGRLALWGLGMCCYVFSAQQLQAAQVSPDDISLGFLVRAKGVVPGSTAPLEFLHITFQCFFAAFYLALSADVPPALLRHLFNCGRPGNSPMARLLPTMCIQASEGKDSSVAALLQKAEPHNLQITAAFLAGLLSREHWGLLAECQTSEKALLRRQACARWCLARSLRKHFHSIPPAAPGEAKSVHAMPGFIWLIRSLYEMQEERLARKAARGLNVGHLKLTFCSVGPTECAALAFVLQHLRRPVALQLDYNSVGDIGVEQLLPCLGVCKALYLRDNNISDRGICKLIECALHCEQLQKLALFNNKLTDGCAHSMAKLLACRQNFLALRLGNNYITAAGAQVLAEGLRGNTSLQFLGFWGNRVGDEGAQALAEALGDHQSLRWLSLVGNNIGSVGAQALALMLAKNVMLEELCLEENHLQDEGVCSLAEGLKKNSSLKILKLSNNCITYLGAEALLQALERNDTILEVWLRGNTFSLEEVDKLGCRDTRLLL
Procedure: HEK 293T-Nod2myc/Tet-op cells were incubated with MDP derivatives (compound D2 is shown) or water (Ctrl) and lysates were collected after cycloheximide treatment during the indicated time intervals. Equal amount of lysates were subjected to western blot and probed using rabbit anti-myc antibody. β-actin was used as a loading control.
Nod2 is a transiently stable protein. It is well-known that ligand binding can affect the stability of a receptor. We considered that the interaction of peptidoglycan derivatives with Nod2 could alter the stability of the protein. In order to determine if ligand interaction changes the half-life of Nod2, we analyzed the naturally occurring MDPs (D2, D9, D1), and a subset of the peptidoglycan derivatives with increased activity (D24, D25) or structural similarity (D53, D16) to D2 or D9. We made use of a tetracycline-induced Nod2 expressing cell line, an excellent match for endogenous Nod2 cell lines, and cycloheximide inhibition of protein synthesis to determine the half-life of Nod2 in the presence of the MDP derivatives. Half-life was determined by first order decay according to literature precedent. […] When Nod2 is not treated with a peptidoglycan derivative, the half-life is 7.1±1.4 hours. […] As compound D1 is the only compound tested that contains an amine, which will be positively charged at cellular pH, we were concerned that cell permeability may be a factor. We analyzed the ability of 6-amino-MDP (18 in Table 4), a MDP derivative that replaces the 6-primary-hydroxy group with an amine.

[2] = biological target: T1, Nod2; experiment: Nod2-dependent NF-κB luciferase reporter assay in transfected HEK293T cells; conditions: 20 μM; for NF-KB Fold Activation ± SD: 12 h, HEK293T, (+) Nod2 plasmid normalized to (−) Nod2 plasmid
[3] = biological target: T1, Nod2; design: expressed in transfected cells; host or cells: HEK293T; conditions: cited from earlier work
[4] = biological target: T2, mouse Nod2 (Mus musculus, UniProt Q8K3Z0); conditions: 200 μM, protein synthesis not inhibited; cited from earlier work
T2 sequence (Q8K3Z0 1-1020): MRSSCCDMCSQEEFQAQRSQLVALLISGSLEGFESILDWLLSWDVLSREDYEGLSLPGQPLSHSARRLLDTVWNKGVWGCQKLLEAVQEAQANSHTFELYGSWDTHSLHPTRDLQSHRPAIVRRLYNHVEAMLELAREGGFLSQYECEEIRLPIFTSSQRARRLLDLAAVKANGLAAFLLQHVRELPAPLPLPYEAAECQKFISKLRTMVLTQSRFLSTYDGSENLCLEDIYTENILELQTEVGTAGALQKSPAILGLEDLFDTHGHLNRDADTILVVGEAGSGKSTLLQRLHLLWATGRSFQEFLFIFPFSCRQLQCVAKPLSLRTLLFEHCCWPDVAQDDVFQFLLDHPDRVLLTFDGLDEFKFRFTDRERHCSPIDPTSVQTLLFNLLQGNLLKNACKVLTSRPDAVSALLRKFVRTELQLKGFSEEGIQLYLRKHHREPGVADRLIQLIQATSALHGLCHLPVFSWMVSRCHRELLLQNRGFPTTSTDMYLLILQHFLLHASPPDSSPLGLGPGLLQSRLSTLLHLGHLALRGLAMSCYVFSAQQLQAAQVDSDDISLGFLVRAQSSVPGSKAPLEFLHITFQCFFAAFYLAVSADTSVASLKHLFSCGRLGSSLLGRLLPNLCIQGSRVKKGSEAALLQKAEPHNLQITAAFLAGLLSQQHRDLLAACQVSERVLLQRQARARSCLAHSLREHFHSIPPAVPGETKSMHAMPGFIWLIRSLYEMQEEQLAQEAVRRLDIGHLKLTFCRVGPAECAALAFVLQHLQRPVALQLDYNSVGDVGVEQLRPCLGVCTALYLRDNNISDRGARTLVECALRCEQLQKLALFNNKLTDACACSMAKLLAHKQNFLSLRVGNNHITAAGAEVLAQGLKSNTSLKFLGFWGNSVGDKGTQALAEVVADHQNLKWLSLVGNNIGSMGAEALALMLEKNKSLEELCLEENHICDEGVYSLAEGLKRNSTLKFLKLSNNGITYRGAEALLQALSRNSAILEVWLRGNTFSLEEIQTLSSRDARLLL

[5] = biological target: T1, Nod2; experiment: in vitro binding assay of Nod2; design: expressed in transfected cells; host or cells: HEK293T
Text: This could be from either the endogenous Nod2 and/or other targets of the bacterial cell wall ligands.

[6] = test system: E. coli ΔmurQ-KU cells; experiment: in vivo peptidoglycan remodeling and CuAAC fluorophore labeling, visualized by SIM; format: cell-based; conditions: 0.2% (w/v) sugar, fosfomycin 200 μg/mL, IPTG 1 mM, CuAAC with rhodamine or Cy-5
[7] = test system: E. coli cells with AmgK, MurU and ΔMurQ; experiment: labeling efficiency by flow cytometry (FACS) after click with Cy-5; format: cell-based; conditions: after CuAAC with Cy-5

SMILES: CC(=O)NC1C(O)OC(CN)C(O)[C@@H]1O[C@H](C)C(=O)N[C@@H](C)C(=O)N[C@H](CCC(=O)O)C(N)=O (some centres unmarked) [6-amino-MDP]
increase of the half-life of Nod2 ([1]; versus untreated): ~3 fold
NF-κB activation in a Nod2-dependent manner (known) [3]: activate NF-κB in a Nod2-dependent manner
NF-KB Fold Activation ± SD ([3]; value marked with reference 19): 2.8 ± 0.1^19 Fold

SMILES: CC(=O)N[C@H]1C(O)O[C@H](CO)[C@@H](O)[C@@H]1O[C@H](C)C(=O)O (some centres unmarked) [A2, N-acetyl-muramic acid]
fluorescent labeling of cells under SIM [6]: couldn't detect any fluorescence
fluorescent signal in the gated Cy-5 channel [7]: slight fluorescence intensity

SMILES: C[C@@H](NC(=O)[C@@H](C)OC1C(NC(=O)CO)[C@@H](O)OC(CO)[C@H]1O)C(=O)NC(CCC(=O)O)C(N)=O (some centres unmarked) [D9, N-glycolyl-MDP]
stabilization of Nod2 (in words) [1]: capable of stabilizing Nod2
NF-KB Fold Activation ± SD [2]: 3.1 ± 0.3 Fold

More lines, main results first:

NF-KB Fold Activation ± SD [2]: No activation
SMILES: C[C@H](NC(=O)[C@@H](C)O[C@@H]1[C@@H](N)[C@H](O)O[C@H](CO)[C@H]1O)C(=O)N[C@H](CCC(=O)O)C(N)=O [D1, (R)-5-amino-4-((S)-2-((R)-2-(((2R,3R,4R,5S,6R)-3-amino-2,5-dihydroxy-6-(hydroxymethyl)tetrahydro-2H-pyran-4-yl)oxy)propanamido)propanamido)-5-oxopentanoic acid]
stabilization of Nod2 (in words) [1]: no stabilization of Nod2; also recorded: did not stabilize; also recorded: no stabilizing effect
NF-κB activation (in words) [2]: did not activate NF-κB; also recorded: does not elicit an immune response via the Nod2-dependent pathway

stabilization of Nod2 (in words) [1]: capable of stabilizing Nod2
Kd [5]: 51 nM
NF-KB Fold Activation ± SD [2]: 1.8 ± 0.3 Fold
SMILES: CC(=O)N[C@H]1C(O)O[C@H](CO)[C@@H](O)[C@@H]1O[C@H](C)C(=O)N[C@@H](C)C(=O)N[C@H](CCC(=O)O)C(N)=O (some centres unmarked) [D2, N-acetyl-MDP]
effect on Nod2 level [4]: led to the degradation of Nod2
